Consider six molecules from patent publication US20220389355A1, “CELL AGGREGATE, PRODUCING METHOD FOR MANUFACTURING CELL AGGREGATE, PRODUCING KIT FOR CELL AGGREGATE, AND CHEMICAL COMPOUND EVALUATING METHOD USING CELL AGGREGATE” (THE JAPAN WOOL TEXTILE CO., LTD., priority 2019, published 2022).

Data set [1] has as its system cardiomyocyte multicellular construct (human iPS cell derived cardiomyocytes). The data set can be described thus: Example 8: calcium imaging, ratio of specimens with arrhythmia waveform. As to conditions: for Ratio of specimens that exhibited the calcium ion signal waveform corresponding to arrhythmia, Dose 1 (%): Dose 1 of Table 5: azithromycin 1 μM, chloroquine or hydroxychloroquine 0.3 μM; for Ratio of specimens that exhibited the calcium ion signal waveform corresponding to arrhythmia, Dose 1 (%) / Ratio of specimens that exhibited the calcium ion signal waveform corresponding to arrhythmia, Dose 2 (%) / Ratio of specimens that exhibited the calcium ion signal waveform corresponding to arrhythmia, Dose 3 (%) / Ratio of specimens that exhibited the calcium ion signal waveform corresponding to arrhythmia, Dose 4 (%): alone or with azithromycin fixed to 3 μM; for Ratio of specimens that exhibited the calcium ion signal waveform corresponding to arrhythmia, Dose 2 (%): Dose 2 of Table 5: azithromycin 3 μM, chloroquine or hydroxychloroquine 1 μM; for Ratio of specimens that exhibited the calcium ion signal waveform corresponding to arrhythmia, Dose 3 (%): Dose 3 of Table 5: azithromycin 10 μM, chloroquine or hydroxychloroquine 3 μM; for Ratio of specimens that exhibited the calcium ion signal waveform corresponding to arrhythmia, Dose 4 (%): Dose 4 of Table 5: chloroquine or hydroxychloroquine 10 μM, azithromycin alone: no Dose 4 in Table 5.

Data set [2] has the same test system. The data set can be described thus: Example 8: contractile force of cardiomyocyte multicellular construct, ratio of specimens with halved contractile force. As to conditions: alone or with azithromycin fixed to 3 μM; for Ratio of specimens whose contractile force decreased to half of that before the addition, Dose 1 (%): Dose 1 of Table 5: azithromycin 1 μM, chloroquine or hydroxychloroquine 0.3 μM; for Ratio of specimens whose contractile force decreased to half of that before the addition, Dose 2 (%): Dose 2 of Table 5: azithromycin 3 μM, chloroquine or hydroxychloroquine 1 μM; for Ratio of specimens whose contractile force decreased to half of that before the addition, Dose 3 (%): Dose 3 of Table 5: azithromycin 10 μM, chloroquine or hydroxychloroquine 3 μM.

Data set [3] has the same test system.
The test system is the same in data set [4]. The data set can be described thus: Example 7: calcium imaging evaluation of response of cardiomyocyte multicellular construct against compound. It is filed as cell-based. As to conditions: seventh day of the culture; for Calcium ion signal waveform compared with before the addition: 1000 nM, cumulative addition, 10 minutes after addition; for Beating rate compared with before the addition: cumulative addition 1 to 1000 nM. As for the experimental part: Cells were seeded and cultured in the same manner as in Example 6, except that the cells were seeded such that the seeding amount per unit area of the scaffold was 6000 cells/mm^2.
On the sixth day of the culture, the cardiomyocyte multicellular construct was placed such that a surface containing more cells faced the bottom surface of a culture dish (IWAKI Multiwell Plate, Non-treated surface for suspension cell culture 6. Well), and was then left to stand for a day. On the seventh day of the culture, a calcium indicator (EarlyTox Cardiotoxicity Kit, Molecular Devices LLC) was added to the culture medium at a volume ratio of 25/100 to fluorescently stain calcium ions in the cardiomyocytes.
The fluorescence intensities in the entire 10-fold magnified visual fields of the obtained images were plotted versus time using an analysis software CellPathfinder, Yokogawa Electric Corp.), and thus signal waveforms of calcium ions in the cardiomyocytes were obtained. Verapamil is a Ca channel antagonist having an Ikr inhibitory effect.

For data set [5] the test system is unchanged. Put plainly: Example 7: contractile force and contraction-relaxation rate of cardiomyocyte multicellular construct (MUSCLEMOTION). Format: cell-based. As to conditions: 1000 nM, seventh day of the culture.
Data set [6] deals with human iPS cell derived cardiomyocyte multicellular construct. Put plainly: Example 5: calcium ion imaging of multicellular construct, response against isoproterenol. It is filed as cell-based. As to conditions: 100 nM, 5 minutes after addition, fourth day of the culture; 60 bpm before the addition.
Procedure: Cells were seeded in the same manner as in Example 4, and a liquid culture medium was added 4 hours later to start cell culturing. On the fourth day of the culture, a calcium indicator (EarlyTox Cardiotoxicity Kit, Molecular Devices LLC.) was added to the culture medium at a volume ratio of 5/100 to fluorescently stain calcium ions in the cardiomyocytes.
Videos were captured at 20 FPS using a confocal imaging confocal imaging system (CellVoyager CQ1, Yokogawa Electric Corp.). Fluorescent areas in the obtained videos were recognized using an analysis software CellPathfinder, Yokogawa Electric Corp.), and signal waveforms of calcium ions in the cardiomyocytes were obtained by plotting the fluorescence intensities versus time.

Molecules are shown by their SMILES. Where two headings read alike, the source gives them in different places.

As for `CC[C@H]1OC(=O)[C@H](C)[C@@H](O[C@H]2C[C@@](C)(OC)[C@@H](O)[C@H](C)O2)[C@H](C)[C@@H](O[C@@H]2O[C@H](C)C[C@H](N(C)C)[C@H]2O)[C@](C)(O)C[C@@H](C)CN(C)[C@H](C)[C@@H](O)[C@]1(C)O` [Azithromycin, azithromycin], in data set [1], the “Ratio of specimens that exhibited the calcium ion signal waveform corresponding to arrhythmia, Dose 1 (%)” value was 0%; the “Ratio of specimens that exhibited the calcium ion signal waveform corresponding to arrhythmia, Dose 2 (%)” value is 0%; the “Ratio of specimens that exhibited the calcium ion signal waveform corresponding to arrhythmia, Dose 3 (%)” value is recorded as 0%; the “Ratio of specimens that exhibited the calcium ion signal waveform corresponding to arrhythmia, Dose 4 (%)” value is 0%. Moreover, in data set [2], the “Ratio of specimens whose contractile force decreased to half of that before the addition, Dose 1 (%)” value was 0%; the “Ratio of specimens whose contractile force decreased to half of that before the addition, Dose 2 (%)” value came to 0%; the “Ratio of specimens whose contractile force decreased to half of that before the addition, Dose 3 (%)” value worked out at 100%.

`CCN(CC)CCCC(C)Nc1ccnc2cc(Cl)ccc12` (stereo not drawn) [Chloroquine, chloroquine]: in data set [3], the “Risk of arrhythmia (conclusion from FIG. 20 and Table 6)” value was “increase the risk of arrhythmia”.

As to `Cc1cccc(CCN2CCC(C(=O)c3ccc(NS(C)(=O)=O)cc3)CC2)n1` [Example E-4031], in data set [4], the “Calcium ion signal waveform compared with before the addition” value is given as “became flattened” and the “Beating rate compared with before the addition” value is recorded as “decreased”. Moreover, in data set [5], the “Contractile force compared with before the addition” value is “decreased” and the “Contraction-relaxation rate compared with before the addition” value was “decreased”.

For the molecule `CCN(CCO)CCCC(C)Nc1ccnc2cc(Cl)ccc12` (stereo not drawn) [Hydroxychloroquine, hydroxychloroquine], in data set [1], the “Ratio of specimens that exhibited the calcium ion signal waveform corresponding to arrhythmia, Dose 1 (%)” value turned out to be 0%; the “Ratio of specimens that exhibited the calcium ion signal waveform corresponding to arrhythmia, Dose 2 (%)” value turned out to be 0%; the “Ratio of specimens that exhibited the calcium ion signal waveform corresponding to arrhythmia, Dose 3 (%)” value worked out at 20%; the “Ratio of specimens that exhibited the calcium ion signal waveform corresponding to arrhythmia, Dose 4 (%)” value is 80%. Besides, in data set [1] (concentrations of Table 5), the “Risk of arrhythmia (conclusion from FIG. 20 and Table 6)” value was “increase the risk of arrhythmia”. Also, in data set [2], the “Ratio of specimens whose contractile force decreased to half of that before the addition, Dose 1 (%)” value is given as 0%; the “Ratio of specimens whose contractile force decreased to half of that before the addition, Dose 2 (%)” value turned out to be 0%; the “Ratio of specimens whose contractile force decreased to half of that before the addition, Dose 3 (%)” value amounted to 20%. Moreover, in data set [2] (Dose 4 of Table 5: chloroquine or hydroxychloroquine 10 μM), the “Ratio of specimens whose contractile force decreased to half of that before the addition, Dose 4 (%)” value was found to be 100%.

Take `CC(C)NCC(O)c1ccc(O)c(O)c1` (stereo not drawn) [Isoproterenol, isoproterenol]: the “Beating rate after the addition” value in data set [6] worked out at 76 bpm. In data set [4], the “Calcium ion signal waveform compared with before the addition” value is on record as “became sharper” and the “Beating rate compared with before the addition” value is recorded as “increased”. Besides, in data set [5], the “Contractile force compared with before the addition” value is listed as “increased” and the “Contraction-relaxation rate compared with before the addition” value is “increased”.

In the case of `COc1ccc(CCN(C)CCCC(C#N)(c2ccc(OC)c(OC)c2)C(C)C)cc1OC` (stereo not drawn) [Verapamil, verapamil], in data set [4], the “Calcium ion signal waveform compared with before the addition” value is reported as “became smaller” and the “Beating rate compared with before the addition” value was “increased”. Moreover, in data set [5], the “Contractile force compared with before the addition” value was “decreased” and the “Contraction-relaxation rate compared with before the addition” value was “decreased”.
